This note sets out measurements from patent US10836775B2, “6,6-fused heteroaryl piperidine ether allosteric modulators of the M4 muscarinic acetylcholine receptor” (Merck Sharp & Dohme Corp., priority 2016, dated 2020).

This assay deals with T1, human M4 muscarinic acetylcholine receptor (Homo sapiens, UniProt P08173).
T1 construct: expressed in transfected cells; host or cells: CHO-K1
T1 sequence (P08173 1-479): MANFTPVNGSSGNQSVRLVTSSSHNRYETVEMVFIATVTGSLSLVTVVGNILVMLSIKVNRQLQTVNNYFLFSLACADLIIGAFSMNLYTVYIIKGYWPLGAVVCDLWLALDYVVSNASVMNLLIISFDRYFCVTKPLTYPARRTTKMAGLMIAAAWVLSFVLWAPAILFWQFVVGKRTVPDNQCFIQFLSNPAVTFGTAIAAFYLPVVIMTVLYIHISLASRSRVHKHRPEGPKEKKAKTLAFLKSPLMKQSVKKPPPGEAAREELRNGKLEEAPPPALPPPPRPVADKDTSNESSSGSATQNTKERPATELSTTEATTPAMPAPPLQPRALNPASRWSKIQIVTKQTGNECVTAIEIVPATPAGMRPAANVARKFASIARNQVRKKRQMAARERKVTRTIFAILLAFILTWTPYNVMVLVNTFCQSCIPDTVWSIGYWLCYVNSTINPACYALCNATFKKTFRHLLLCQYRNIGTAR
As to the kind of experiment: human FLIPR-based M4 PAM assay (CHO-K1 cells, human M4 receptor and Gαqi5, calcium dye fluorescence, acetylcholine at 20% of maximum). It is filed as cell-based. Particulars: inflection point (IP) of 4 parameter logistic dose response curve; CHO-K1 cells with human M4 receptor and Gαqi5; FLIPR Tetra. The method, then:
In a typical experiment the M4 muscarinic acetylcholine receptor modulating activity of the compounds of the present invention was determined in accordance with the following experimental method. […] On the day of assay, growth medium is removed, the cells are washed 2 times with wash buffer, and cells are incubated in dye loading buffer at 37° C., 5% CO2 for ˜1 hour. […] Next, 10 uL of acetylcholine is added (final concentration calculated so as to achieve 20% of the maximum acetycholine response), and the fluorescence reading is continued for 3.5 min. In some cases, a third addition of acetylcholine (final concentration calculated to achieve 70% of the maximal acetylcholine response) is performed. The resulting dose response curves are fit to a 4 parameter logistic equation and the final result is determined as the inflection point (IP) of the curve
CHO-K1 cells stably transfected with human M4 receptor and chimeric G-protein Gαqi5 are thawed from liquid N2 storage, resuspended in growth medium, plated in black, clear bottom 384 well plates, and incubated 16-20 hours at 37° C., 5% CO2.
On the day of assay, growth medium is removed, the cells are washed 2 times with wash buffer, and cells are incubated in dye loading buffer at 37° C., 5% CO2 for ˜1 h. […] Next, 10 uL of acetylcholine is added (final concentration calculated so as to achieve 20% of the maximum acetycholine response), and the fluorescence reading is continued for 3.5 min. In some cases, a third addition of acetylcholine (final concentration calculated to achieve 70% of the maximal acetylcholine response) is performed.
For `CCc1cc2c(=O)[nH]c(=O)[nH]c2nc1N1CCC(OCC2(C)CC2)CC1` [Example 31, 6-ethyl-7-(4-((1-methylcyclopropyl)methoxy)piperidin-1-yl)pyrido[2,3-d]pyrimidine-2,4(1H,3H)-dione], the EC50 amounted to 42 nM.
Under `Cc1cc2c(=O)[nH]c(=O)[nH]c2nc1N1CCC(OCC2CCC2)CC1` [Example 32, 7-(4-(cyclobutyl-methoxy)piperidin-1-yl)-6-methylpyrido[2,3-d]pyrimidine-2,4(1H,3H)-dione] stands 236 nM; under `Cc1cc2c(=O)[nH]c(=O)[nH]c2nc1N1CCC(OCC2CC2)CC1` [Example 33, 7-(4-(cyclopropyl-methoxy)piperidin-1-yl)-6-methylpyrido[2,3-d]pyrimidine-2,4(1H,3H)-dione], 52 nM; under `Cc1cc2c(=O)[nH]c(=O)[nH]c2nc1N1CCC(OCC2CCCCC2)CC1` [Example 34, 7-(4-(cyclohexyl-methoxy)piperidin-1-yl)-6-methylpyrido[2,3-d]pyrimidine-2,4(1H,3H)-dione], 361 nM.
As for `COc1ccc(OC2CCN(c3nc4occc(=O)c4cc3C)CC2)cn1` [Example 35, 7-(4-((6-methoxypyridin-3-yl)oxy)piperidin-1-yl)-6-methyl-4H-pyrano[2,3-b]pyridin-4-one], the figure is 38 nM.
Under `Cc1cc2c(=O)[nH]c(=O)[nH]c2nc1N1CCC(OCC(C)C)CC1` [Example 36, 7-(4-isobutoxy-piperidin-1-yl)-6-methylpyrido[2,3-d]pyrimidine-2,4(1H,3H)-dione] stands 138 nM.
With `CCc1cc2c(=O)[nH]ncc2nc1N1CCC(Oc2ccc(OC)nc2)CC1` [Example 37, 3-ethyl-2-(4-((6-methoxypyridin-3-yl)oxy)piperidin-1-yl)pyrido[2,3-d]pyridazin-5(6H)-one], the EC50 is 71 nM.
Under `Cc1cc2c(=O)[nH]c(=O)[nH]c2nc1N1CCC(OCC2CCCC2)CC1` [Example 38, 7-(4-(cyclopentyl-methoxy)piperidin-1-yl)-6-methylpyrido[2,3-d]pyrimidine-2,4(1H,3H)-dione] stands 112 nM; under `COCc1nc2nc(N3CCC(Oc4cccc(C#N)c4)CC3)c(C)cc2c(=O)[nH]1` [Example 39, 3-((1-(2-(methoxymethyl)-6-methyl-4-oxo-3,4-dihydropyrido[2,3-d]pyrimidin-7-yl)piperidin-4-yl)oxy)benzonitrile], 32 nM.
Under `COc1ccc(OC2CCN(c3nc4nc(C)n(C)c(=O)c4cc3C)CC2)cn1` [Example 40, 7-(4-((6-methoxypyridin-3-yl)oxy)piperidin-1-yl)-2,3,6-trimethyl-pyrido[2,3-d]pyrimidin-4(3H)-one] stands 155 nM; under `COc1ccc(OC2CCN(c3nc4oc(C)cc(=O)c4cc3C)CC2)cn1` [Example 41, 7-(4-((6-methoxypyridin-3-yl)oxy)piperidin-1-yl)-2,6-dimethyl-4H-pyrano[2,3-b]pyridin-4-one], 100 nM; under `COc1ccc(OC2CCN(c3nc4cnn(CCO)c(=O)c4cc3C)CC2)cn1` [Example 42, 6-(2-Hydroxyethyl)-2-(4-((6-methoxypyridin-3-yl)oxy)piperidin-1-yl)-3-methylpyrido[2,3-d]pyridazin-5(6H)-one], 110 nM.
As for `Cc1cc2c(=O)n(CCO)ncc2nc1N1CCC(OCC2(C)CC2)CC1` [Example 43, 6-(2-hydroxyethyl)-3-methyl-2-(4-((1-methylcyclopropyl)methoxy)piperidin-1-yl)pyrido[2,3-d]pyridazin-5(6H)-one], the figure is 133 nM; as for `COc1ccc(OC2CCN(c3nc4ncn(C)c(=O)c4cc3C)CC2)cn1` [Example 44, 7-(4-((6-Methoxypyridin-3-yl)oxy)piperidin-1-yl)-3,6-dimethylpyrido[2,3-d]pyrimidin-4(3H)-one], 135 nM.
Take `Cc1cc2c(=O)n(C)c(C)nc2nc1N1CCC(Oc2cnc3c(c2)COC3)CC1` [Example 45, 7-(4-((5,7-dihydrofuro[3,4-b]pyridin-3-yl)oxy)piperidin-1-yl)-2,3,6-trimethyl-pyrido[2,3-d]pyrimidin-4(3H)-one]: the EC50 was 361 nM.
As for `COc1ccc(OC2CCN(c3nc4c(cc3C)CCNC4=O)CC2)cn1` [Example 46, 2-(4-((6-Methoxypyridin-3-yl)oxy)piperidin-1-yl)-3-methyl-6,7-dihydro-1,7-naphthyridin-8(51H)-one], the figure is 587 nM; as for `COc1ccc(OC2CCN(c3nc4[nH]c(=O)oc(=O)c4cc3C)CC2)cn1` [Example 47, 7-(4-((6-Methoxypyridin-3-yl)oxy)piperidin-1-yl)-6-methyl-2H-pyrido[2,3-d][1,3]oxazine-2,4(1H)-dione], 78 nM.
As for `COc1ccc(OC2CCN(c3nc4c(cc3C)CNC(=O)N4)CC2)cn1` [Example 48, 7-(4-((6-Methoxypyridin-3-yl)oxy)piperidin-1-yl)-6-methyl-3,4-dihydropyrido[2,3-d]pyrimidin-2(1H)-one], the figure is 272 nM; as for `COc1ccc(OC2CCN(c3nc4c(cnc(=O)n4C)cc3C)CC2)cn1` [Example 49, 7-(4-((6-Methoxypyridin-3-yl)oxy)piperidin-1-yl)-1,6-dimethylpyrido[2,3-d]pyrimidin-2(1H)-one], 210 nM.
For `COc1ccc(OC2CCN(c3nc4[nH]c(=N)[nH]c(=O)c4cc3C)CC2)cn1` [Example 50, 2-Imino-7-(4-((6-methoxypyridin-3-yl)oxy)piperidin-1-yl)-6-methyl-2,3-dihydropyrido[2,3-d]pyrimidin-4(1H)-one], the EC50 was determined as 469 nM.
Under `COc1ccc(OC2CCN(c3nc4cnn(CO)c(=O)c4cc3C)CC2)cn1` [Example 51, 6-(Hydroxymethyl)-2-(4-((6-methoxypyridin-3-yl)oxy)piperidin-1-yl)-3-methylpyrido[2,3-d]pyridazin-5(6H)-one] stands 46 nM; under `COc1ccc(OC2CCN(c3nc4oc(=O)[nH]c(=O)c4cc3C)CC2)cn1` [Example 52, 7-(4-((6-Methoxypyridin-3-yl)oxy)piperidin-1-yl)-6-methyl-2H-pyrido[3,2-e][1,3]oxazine-2,4(3H)-dione], 15 nM; under `COc1ccc(OC2CCN(c3nc4c(=O)[nH][nH]c(=O)c4cc3C)CC2)cn1` [Example 53, 2-(4-((6-Methoxypyridin-3-yl)oxy)piperidin-1-yl)-3-methyl-6,7-dihydropyrido[2,3-d]pyridazine-5,8-dione], 260 nM.
As for `COc1ccc(OC2CCN(c3nc4ccoc(=O)c4cc3C)CC2)cn1` [Example 54, 2-(4-((6-Methoxypyridin-3-yl)oxy)piperidin-1-yl)-3-methyl-5H-pyrano[4,3-b]pyridin-5-one], the figure is 85 nM; as for `COc1ccc(OC2CCN(c3nc4cc(C)oc(=O)c4cc3C)CC2)cn1` [Example 55, 2-(4-((6-Methoxypyridin-3-yl)oxy)piperidin-1-yl)-3,7-dimethyl-5H-pyrano[4,3-b]pyridin-5-one], 70 nM.
